The source of these data is ChEMBL document CHEMBL4402510, “Caprazamycins: Promising lead structures acting on a novel antibacterial target MraY” (Eur J Med Chem, 2019).

≈ marks a conversion by molar mass, not a printed value.

By MIC is commonly meant the smallest concentration in the dilution series that meets the test's criterion for growth inhibition. Lower therefore signals a more susceptible organism.

Common to all, as to assay type: functional
In one experiment the test system is Mycolicibacterium phlei. Kind of experiment: Antibacterial activity against Mycobacterium phlei.
Experiment [1] relates to Mycobacterium tuberculosis. Kind of experiment: Antibacterial activity against Mycobacterium tuberculosis H37Rv.
Experiment [2] in a line: Antibacterial activity against Mycobacterium avium subsp. avium ATCC 25291.
The test system of experiment [3] is Mycobacterium avium subsp. paratuberculosis. Kind of experiment: Antibacterial activity against Mycobacterium avium subsp. paratuberculosis ATCC 43015.
In experiment [4] the test system is Staphylococcus aureus. Kind of experiment: Antibacterial activity against methicillin resistant Staphylococcus aureus No. 5.
In experiment [5] the test system is Mycobacterium tuberculosis. As to the kind of experiment: Antibacterial activity against Mycobacterium tuberculosis Kurono.
Experiment [6] deals with Mycobacterium tuberculosis. As to the kind of experiment: Antibacterial activity against Mycobacterium tuberculosis JCM 6384.
Experiment [7] has as its system Mycolicibacterium smegmatis. Kind of experiment: Antibacterial activity against Mycobacterium smegmatis ATCC 607.
A further experiment concerns Mycolicibacterium vaccae. As to the kind of experiment: Antibacterial activity against Mycobacterium vaccae ATCC 15483.
Experiment [8] deals with Staphylococcus aureus. As to the kind of experiment: Antibacterial activity against Staphylococcus aureus FDA 209P.
For experiment [9], the system named is Staphylococcus aureus. Kind of experiment: Antibacterial activity against methicillin resistant Staphylococcus aureus MS16526.
In the next experiment the test system is Bacillus subtilis. As to the kind of experiment: Antibacterial activity against Bacillus subtilis PCI 219.
Another experiment concerns Escherichia coli. Kind of experiment: Antibacterial activity against Escherichia coli K-12.

In the case of `CCCCCCCC/C=C/CCCCCCCCNC(=O)C1=CCN(C)[C@@H]([C@H](O[C@@H]2O[C@H](CN)[C@@H](O)[C@H]2O)[C@H]2O[C@@H](n3ccc(=O)[nH]c3=O)[C@H](O)[C@@H]2O)C(=O)N1C`, the minimal inhibitory concentration (MIC) with Mycolicibacterium phlei was 1.56 µg/mL (≈ 1.93 µM); in experiment [1], 3.13 µg/mL (≈ 3.88 µM); in experiment [2], 6.25 µg/mL (≈ 7.74 µM); in experiment [3] it was 0.78 µg/mL (≈ 0.967 µM); in the experiment on Staphylococcus aureus [4] it was 6.25 µg/mL (≈ 7.74 µM); in experiment [5], 3.13 µg/mL (≈ 3.88 µM). Further, the MIC in [6] is 1.56 µg/mL (≈ 1.93 µM); in [7], 1.56 µg/mL (≈ 1.93 µM); with Mycolicibacterium vaccae it was 1.56 µg/mL (≈ 1.93 µM); with Staphylococcus aureus [8], 6.25 µg/mL (≈ 7.74 µM); in the experiment on Staphylococcus aureus [9], 0.78 µg/mL (≈ 0.967 µM); against Bacillus subtilis it was over 100 µg/mL. In the experiment on Escherichia coli, this molecule displayed an MIC of over 100 µg/mL.
In the case of `CCc1ccc(NC(=O)C2=CCN(C)[C@@H]([C@H](O[C@@H]3O[C@H](CN)[C@@H](O)[C@H]3O)[C@H]3O[C@@H](n4ccc(=O)[nH]c4=O)[C@H](O)[C@@H]3O)C(=O)N2C)cc1`, the MIC is 12.5 µg/mL (≈ 18.9 µM) in the experiment on Mycolicibacterium phlei; 6.25 µg/mL (≈ 9.46 µM) in experiment [1]; 100 µg/mL (≈ 151 µM) in experiment [2]; over 100 µg/mL in [3]; over 100 µg/mL against Staphylococcus aureus [4]; 3.13 µg/mL (≈ 4.74 µM) in experiment [5]. Moreover, the MIC (in [6]; in [7]; in the experiment on Mycolicibacterium vaccae; in the experiment on Staphylococcus aureus [8]) was over 100 µg/mL in each case.
On to `CCCCCCCCCCOC(=O)C1=CCN(C)[C@@H]([C@H](O[C@@H]2O[C@H](CN)[C@@H](O)[C@H]2O)[C@H]2O[C@@H](n3ccc(=O)[nH]c3=O)[C@H](O)[C@@H]2O)C(=O)N1C`, for which the minimal inhibitory concentration (MIC) against Mycolicibacterium phlei was over 100 µg/mL; in experiment [1], 12.5 µg/mL (≈ 17.9 µM); in [2] it was 12.5 µg/mL (≈ 17.9 µM); in [3], 12.5 µg/mL (≈ 17.9 µM); in experiment [5] it was 12.5 µg/mL (≈ 17.9 µM); in experiment [6] it was 50 µg/mL (≈ 71.7 µM). Moreover, the MIC in [7] was 50 µg/mL (≈ 71.7 µM); in the experiment on Mycolicibacterium vaccae, 0.78 µg/mL (≈ 1.12 µM); in the experiment with Staphylococcus aureus [8], over 100 µg/mL.
As to `CCCCCCCCCCCCCCCCCCCCCNC(=O)C1=CCN(C)[C@@H]([C@H](O[C@@H]2O[C@H](CN)[C@@H](O)[C@H]2O)[C@H]2O[C@@H](n3ccc(=O)[nH]c3=O)[C@H](O)[C@@H]2O)C(=O)N1C`, the MIC in the experiment on Mycolicibacterium phlei was 12.5 µg/mL (≈ 14.7 µM); in experiment [1], 1.56 µg/mL (≈ 1.83 µM); in [2] it was 50 µg/mL (≈ 58.7 µM); in [3], over 100 µg/mL; in the experiment on Staphylococcus aureus [4] it was over 100 µg/mL; in experiment [5], 0.78 µg/mL (≈ 0.916 µM). For the same molecule, the MIC is over 100 µg/mL in experiment [6]; 6.25 µg/mL (≈ 7.34 µM) in experiment [7]; 12.5 µg/mL (≈ 14.7 µM) against Mycolicibacterium vaccae; 1.56 µg/mL (≈ 1.83 µM) in the experiment on Staphylococcus aureus [8]; over 100 µg/mL against Staphylococcus aureus [9].
On to `CCCCCCCc1ccc(NC(=O)C2=CCN(C)[C@@H]([C@H](O[C@@H]3O[C@H](CN)[C@@H](O)[C@H]3O)[C@H]3O[C@@H](n4ccc(=O)[nH]c4=O)[C@H](O)[C@@H]3O)C(=O)N2C)cc1`, for which the minimal inhibitory concentration (MIC) was 25 µg/mL (≈ 34.2 µM) against Mycolicibacterium phlei; 0.78 µg/mL (≈ 1.07 µM) in experiment [1]; 1.56 µg/mL (≈ 2.13 µM) in experiment [2]; 0.05 µg/mL (≈ 0.0684 µM) in [3]; under 0.2 µg/mL in the experiment on Staphylococcus aureus [4]; 0.78 µg/mL (≈ 1.07 µM) in experiment [5]. Also, the minimal inhibitory concentration (MIC) in experiment [6] was 0.1 µg/mL (≈ 0.137 µM); in [7], under 0.2 µg/mL; in the experiment on Mycolicibacterium vaccae, 1.56 µg/mL (≈ 2.13 µM); in the experiment with Staphylococcus aureus [8] it was 12.5 µg/mL (≈ 17.1 µM); against Staphylococcus aureus [9], 50 µg/mL (≈ 68.4 µM); against Bacillus subtilis it was 6.25 µg/mL (≈ 8.55 µM).
As for `CCCCCCCCCCCCCOC(=O)C1=CCN(C)[C@@H]([C@H](O[C@@H]2O[C@H](CN)[C@@H](O)[C@H]2O)[C@H]2O[C@@H](n3ccc(=O)[nH]c3=O)[C@H](O)[C@@H]2O)C(=O)N1C`, the MIC in the experiment with Mycolicibacterium phlei is 25 µg/mL (≈ 33.8 µM); in [1], 6.25 µg/mL (≈ 8.45 µM); in experiment [2] it was 3.13 µg/mL (≈ 4.23 µM); in experiment [3], 12.5 µg/mL (≈ 16.9 µM); in the experiment on Staphylococcus aureus [4], 0.78 µg/mL (≈ 1.05 µM); in [5] it was 50 µg/mL (≈ 67.6 µM). For the same molecule, the MIC in experiment [6] is 12.5 µg/mL (≈ 16.9 µM); in experiment [7], 6.25 µg/mL (≈ 8.45 µM); in the experiment with Mycolicibacterium vaccae, 3.13 µg/mL (≈ 4.23 µM); with Staphylococcus aureus [8], 12.5 µg/mL (≈ 16.9 µM); in the experiment on Staphylococcus aureus [9] it was over 100 µg/mL; against Bacillus subtilis it was 25 µg/mL (≈ 33.8 µM).
As for `CCCCCCCCCCCCCCCCCNC(=O)C1=CCN(C)[C@@H]([C@H](O[C@@H]2O[C@H](CN)[C@@H](O)[C@H]2O)[C@H]2O[C@@H](n3ccc(=O)[nH]c3=O)[C@H](O)[C@@H]2O)C(=O)N1C`, the minimum inhibitory concentration (MIC) was over 100 µg/mL in the experiment on Mycolicibacterium phlei; 3.13 µg/mL (≈ 3.94 µM) in experiment [1]; 1.56 µg/mL (≈ 1.96 µM) in experiment [2]; 6.25 µg/mL (≈ 7.86 µM) in experiment [3]; 6.25 µg/mL (≈ 7.86 µM) in [5]; 6.25 µg/mL (≈ 7.86 µM) in experiment [6]. The minimum inhibitory concentration (MIC) is 1.56 µg/mL (≈ 1.96 µM) in experiment [7] and over 100 µg/mL with Mycolicibacterium vaccae.
As for `CCCCCCc1ccc(NC(=O)C2=CCN(C)[C@@H]([C@H](O[C@@H]3O[C@H](CN)[C@@H](O)[C@H]3O)[C@H]3O[C@@H](n4ccc(=O)[nH]c4=O)[C@H](O)[C@@H]3O)C(=O)N2C)cc1`, the MIC in the experiment with Mycolicibacterium phlei worked out at 0.39 µg/mL (≈ 0.544 µM); in experiment [1], 0.78 µg/mL (≈ 1.09 µM); in [2] it was 0.2 µg/mL (≈ 0.279 µM); in [3] it was 0.78 µg/mL (≈ 1.09 µM); with Staphylococcus aureus [4], 12.5 µg/mL (≈ 17.4 µM); in [5], 0.78 µg/mL (≈ 1.09 µM). The minimum inhibitory concentration (MIC) in experiment [6] was 6.25 µg/mL (≈ 8.72 µM); in experiment [7] it was 1.56 µg/mL (≈ 2.18 µM); in the experiment on Mycolicibacterium vaccae it was 12.5 µg/mL (≈ 17.4 µM); with Staphylococcus aureus [8], over 100 µg/mL.
With `C=CCCCCCCCCCOC(=O)C1=CCN(C)[C@@H]([C@H](O[C@@H]2O[C@H](CN)[C@@H](O)[C@H]2O)[C@H]2O[C@@H](n3ccc(=O)[nH]c3=O)[C@H](O)[C@@H]2O)C(=O)N1C`, the MIC with Mycolicibacterium phlei is 50 µg/mL (≈ 70.4 µM); in experiment [1] it was 12.5 µg/mL (≈ 17.6 µM); in experiment [2], 12.5 µg/mL (≈ 17.6 µM); in [3], 6.25 µg/mL (≈ 8.81 µM); in the experiment on Staphylococcus aureus [4], over 100 µg/mL; in [5] it was 12.5 µg/mL (≈ 17.6 µM). Besides, the MIC is 12.5 µg/mL (≈ 17.6 µM) in experiment [6]; 25 µg/mL (≈ 35.2 µM) in experiment [7]; 50 µg/mL (≈ 70.4 µM) against Mycolicibacterium vaccae; 1.56 µg/mL (≈ 2.2 µM) in the experiment with Staphylococcus aureus [8]; over 100 µg/mL against Staphylococcus aureus [9].
In the case of `CCCCCCCCCCCCCCCCCCCCNC(=O)C1=CCN(C)[C@@H]([C@H](O[C@@H]2O[C@H](CN)[C@@H](O)[C@H]2O)[C@H]2O[C@@H](n3ccc(=O)[nH]c3=O)[C@H](O)[C@@H]2O)C(=O)N1C`, the MIC against Mycolicibacterium phlei is 1.56 µg/mL (≈ 1.86 µM); in [1] it was 1.56 µg/mL (≈ 1.86 µM); in experiment [2], 25 µg/mL (≈ 29.9 µM); in [3], 50 µg/mL (≈ 59.7 µM); in the experiment with Staphylococcus aureus [4], over 100 µg/mL; in experiment [5] it was 1.56 µg/mL (≈ 1.86 µM). The minimal inhibitory concentration (MIC) in experiment [6] is over 100 µg/mL; in experiment [7], 6.25 µg/mL (≈ 7.47 µM); in the experiment with Mycolicibacterium vaccae, 12.5 µg/mL (≈ 14.9 µM); with Staphylococcus aureus [8], over 100 µg/mL.
For the molecule `CC/C=C/CCCCCCCCCCOC(=O)C1=CCN(C)[C@@H]([C@H](O[C@@H]2O[C@H](CN)[C@@H](O)[C@H]2O)[C@H]2O[C@@H](n3ccc(=O)[nH]c3=O)[C@H](O)[C@@H]2O)C(=O)N1C`, the minimum inhibitory concentration (MIC) in the experiment with Mycolicibacterium phlei is 12.5 µg/mL (≈ 16.6 µM); in [1] it was 12.5 µg/mL (≈ 16.6 µM); in experiment [2], 25 µg/mL (≈ 33.3 µM); in experiment [3] it was 6.25 µg/mL (≈ 8.31 µM); in the experiment on Staphylococcus aureus [4] it was over 100 µg/mL; in experiment [5], 6.25 µg/mL (≈ 8.31 µM). The MIC came to 12.5 µg/mL (≈ 16.6 µM) in experiment [6]; 6.25 µg/mL (≈ 8.31 µM) in experiment [7]; 25 µg/mL (≈ 33.3 µM) in the experiment on Mycolicibacterium vaccae; 0.78 µg/mL (≈ 1.04 µM) against Staphylococcus aureus [8]; 25 µg/mL (≈ 33.3 µM) against Staphylococcus aureus [9].
